Patent publication US9273095B2, “Antibiotic peptide and preparation method therefor and application therefor” (priority 2011, dated 2016)
In brackets after ≈: the same amount, converted by molar mass. Like-named read-outs stand apart in the source and are kept apart here. Non-standard residues stand in square brackets, D forms with d. Residues, ends and D or L forms follow the SMILES beside them.

How the values were obtained:
[1] = test system: candida krusei; experiment: microbe, parasite or virus in culture; assay type: cell-based
Excerpt: • (1) Test strains: monilia albicans (candida albicans), candida glabrata, candida krusei, candida tropicalis, aspergillus fumigatus and flavous. (2) Quality control strains: candida krusei JLC30366 (ATCC6258). Antimicrobial peptides PL-13 (SEQ ID NO: 1) under test are supplied by Jiangsu ProteLight Pharmaceutical & Biotechnology Co., LTD. […] (1) The bacterial strains which preserved on PDA slant are respectively inoculated onto PDA plate and slant medium. Activation of bacterial strains is conducted at a humidity level of 60% and 25° C. (for aspergillus) or 37° C. (for candida). (2) 0.9% stroke-physiological saline solution comprising 0.5% Tween-80 is used to prepare bacterial suspension for experiment. Hemocytometer is utilized to adjust concentration of the bacterial suspension to 1-3×10^6 CFU/ml (0.5 McFarland units) to make stock solution in reserve at -20° C. During the sensitivity test, the RPMI-1640 liquid medium is diluted 1000 times to 1-3×10^3 CFU/ml. (3) The RPMI-1640 liquid is utilized as diluent to 10-fold dilute stock solution of peptides. […] The eleventh orifice is used as living control orifice, while the twelfth one as blank control. (4) The RPMI-1640 liquid is utilized as diluent to 10-fold dilute stock solution of FCZ and ICZ. […] Ditto for other operations.

[2] = test system: aspergillus flavous; experiment: microbe, parasite or virus in culture; assay type: cell-based
Method in brief: (§1)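 Broth dilution in RPMI-1640 with PL-13 peptide diluted 10-fold from stock; inoculum 1-3×10^3 CFU/ml in the test. Strains activated at 60% humidity, 25 °C for aspergillus or 37 °C for candida; living and blank control wells included.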

[3] = test system: aspergillus fumigatus; experiment: microbe, parasite or virus in culture; assay type: cell-based
Method in brief: as §1

[4] = test system: candida albicans; experiment: microbe, parasite or virus in culture; assay type: cell-based
Method in brief: as §1

[5] = test system: candida glabrata; experiment: microbe, parasite or virus in culture; assay type: cell-based
Method in brief: as §1

[6] = test system: candida tropicalis; experiment: microbe, parasite or virus in culture; assay type: cell-based
Method in brief: as §1

[7] = RP-HPLC temperature profiling: hydrophobicity and self-association; assay type: physicochemical; details: for tR(min) 5° C. / tR(min) 80° C.: RP-HPLC temperature profiling; for PA (min), association parameter: maximal normalized retention time difference within 5-80° C., self-association ability; for tR(min) Max: maximal retention time during temperature profiling 5-80° C.; for ΔtR(X-Peptide C)(min) 5° C.: retention time difference to control peptide C at 5° C.; for ΔtR(X-Peptide C)(min) 5° C. / ΔtR(X-Peptide C)(min) 80° C.: relative hydrophobicity; for ΔtR(X-Peptide C)(min) 80° C.: retention time difference to control peptide C at 80° C.; for Hydrophobicity tR5: retention time in RP-HPLC at pH 2, 5° C.; for Hydrophobicity tR80: retention time in RP-HPLC at pH 2, 80° C.
Description: Peptides are analyzed on an Agilent 1200 series liquid chromatograph (Little Falls, Del.). Runs are performed on a Zorbax 300 SB-C8 column (150×4.6 mm I.D.; 5 μm particle size, 300 Å pore size) from Agilent Technologies using linear AB gradient (1% acetonitrile/min) and a flow rate of 1 ml/min, where solvent A is 0.05% aqueous TFA, pH 2 and solvent B is 0.05% TFA in acetonitrile.
We further use temperature profiling during RP-HPLC to determine the self-association ability of various analogs of PL-13 (SEQ ID NO: 1) which would occur through interaction of the non-polar faces of these amphipathic peptides α-helices. We use 50% TFE aqueous acetonitrile and hydrophobic conditions in the reversed-phase column (hydrophobic stationary phase and the hydrophobic organic solvent in the mobile phase) since the hydrophobic environment of a reversed-phase column also could induce α-helical structure. Since its introduction, the technique of RP-HPLC temperature profiling has been applied on several types of molecules, including cyclic β-sheet peptides, monomeric α-helices and α-helices that dimerize, as well as α-helices that dimerize to form coiled-coils. Although peptides are eluted from a reversed-phase column mainly by an adsorption/desorption mechanism, even a peptide strongly bound to a hydrophobic stationary phase will partition between the matrix and the mobile phase when the acetonitrile content becomes high enough during gradient elution. In summary, the mechanism is based on four assumptions: (i) at low temperature, just as an amphipathic α-helical peptide is able to dimerize in aqueous solution (through its hydrophobic, non-polar face), it will dimerize in solution during partitioning in reversed-phase chromatography; (ii) at higher temperatures, the monomer-dimer equilibrium favors the monomer as the dimer is disrupted; (iii) at sufficiently high temperatures, only monomer is present in solution; and (iv) peptide is always bound in its monomeric helical form to the hydrophobic stationary phase, i.e., the dimer can only be present in solution and disruption of the dimer is required for rebinding to the RP-HPLC matrix.
([θ]222=−3,950). Since peptide C is a monomeric random coil peptide in both aqueous and hydrophobic media, its retention behavior over the temperature range 5-80° C. represents only general temperature effects on peptide retention behavior, i.e., a linear decrease in peptide retention time with increasing temperature due to greater solute diffusivity and enhanced mass transfer between the stationary and mobile phases at higher temperatures. Thus, after normalization to the retention times of peptide C, the retention behavior of the peptides only represents peptide self-association ability. Note that the higher the PA value, the greater the self-association ability. The order of peptide self-association ability of the three pairs of peptide enantiomers is identical to the order of peptide hydrophobicity. Apart from the decrease in retention time due to the general temperature effects noted above, destruction of the α-helix will also occur with increasing temperature, resulting in reduced retention times as the peptides become increasingly random coils.
The retention time data for the peptides is shown in Table 6 which records retention times at 5° C., the maximal retention times and retention times at 80° C. during the temperature profiling. Temperatures of 5-80° C. are the lower and upper temperature limits of temperature profiling in RP-HPLC, representing polymerization of the peptides at 5° C. and the monomerization of peptides at 80° C. due to denaturation of peptides by high temperature and dissociation of the polymers. The maximal retention times represent the threshold points at which peptides totally transform from polymeric to monomeric form. […]

[8] = JLC 30506 aspergillus fumigatus
[9] = JLC 30883 aspergillus fumigatus

| Compound | Minimal inhibitory concentration ([1]; JLC 30366 candida krusei) | Minimal inhibitory concentration ([1]; JLC 30383 candida krusei) | Minimal inhibitory concentration ([2]; JLC 30784 aspergillus flavous) | Minimal inhibitory concentration ([2]; JLC 40437 aspergillus flavous) | Minimal inhibitory concentration [3, 8] | Minimal inhibitory concentration [3, 9] | Minimal inhibitory concentration ([4]; JLC 33659 candida albicans) | Minimal inhibitory concentration ([4]; JLC 33660 candida albicans) | Minimal inhibitory concentration ([5]; JLC 30367 candida glabrata) | Minimal inhibitory concentration ([5]; JLC 31512 candida glabrata) | tR(min) 5° C. [7] | tR(min) 80° C. [7] | PA (min), association parameter [7] | tR(min) Max [7] | ΔtR(X-Peptide C)(min) 5° C. [7] | ΔtR(X-Peptide C)(min) 80° C. [7] | Hydrophobicity tR5 [7] | Hydrophobicity tR80 [7] | Minimal inhibitory concentration [2] | Minimal inhibitory concentration [3] | also measured |
| --- | --- | --- | --- | --- | --- | --- | --- | --- | --- | --- | --- | --- | --- | --- | --- | --- | --- | --- | --- | --- | --- |
| CC[C@@H](C)[C@@H](NC(=O)[C@@H](CCCCN)NC(=O)[C@@H](CO)NC(=O)[C@@H](Cc1ccccc1)NC(=O)[C@@H](CC(C)C)NC(=O)[C@@H](CCCCN)NC(=O)[C@@H](CCC(=O)O)NC(=O)[C@@H](CC(C)C)NC(=O)[C@@H](CCCNC(=N)N)NC(=O)[C@@H](CCCCN)NC(=O)[C@@H](Cc1ccccc1)NC(C)=O)C(=O)N[C@H](Cc1c[nH]c2ccccc12)C(=O)N[C@H](CC(N)=O)C(=O)N[C@H](Cc1c[nH]c2ccccc12)C(=O)N[C@H](CCCCN)C(N)=O [PL-17] (Ac-[dF][dK][dR][dL][dE][dK][dL][dF][dS][dK][dI][dW][dN][dW][dK]-NH2) | 8 µg/mL (≈ 3.88 µM) | 8 µg/mL (≈ 3.88 µM) | >64 µg/mL | >64 µg/mL | 32 µg/mL (≈ 15.5 µM) | 32 µg/mL (≈ 15.5 µM) | 4 µg/mL (≈ 1.94 µM) | 4 µg/mL (≈ 1.94 µM) | 4 µg/mL (≈ 1.94 µM) | 8 µg/mL (≈ 3.88 µM) |  |  |  |  |  |  |  |  |  |  | Minimal inhibitory concentration ([6]; JLC 31379 candida tropicalis): 2 µg/mL (≈ 0.969 µM); Minimal inhibitory concentration ([6]; JLC 31384 candida tropicalis): 2 µg/mL (≈ 0.969 µM) |
| CC(=O)N[C@H](Cc1ccccc1)C(=O)N[C@H](CCCCN)C(=O)N[C@H](CCCCN)C(=O)N[C@H](CC(C)C)C(=O)N[C@H](CCCCN)C(=O)N[C@H](CCCCN)C(=O)N[C@H](CC(C)C)C(=O)N[C@H](Cc1ccccc1)C(=O)N[C@H](CO)C(=O)N[C@H](CCCCN)C(=O)N[C@H](CC(C)C)C(=O)N[C@H](Cc1c[nH]c2ccccc12)C(=O)N[C@H](CC(N)=O)C(=O)N[C@H](Cc1c[nH]c2ccccc12)C(=O)N[C@H](CCCCN)C(N)=O [PL-18] (Ac-[dF][dK][dK][dL][dK][dK][dL][dF][dS][dK][dL][dW][dN][dW][dK]-NH2) |  |  |  |  |  |  |  |  |  |  | 35.75 min | 33.37 min | 0.56 min | 35.75 min | 13.19 min | 13.45 min | 35.75 min | 33.37 min | >64 µg/mL | 16 µg/mL (≈ 7.86 µM) | Minimal inhibitory concentration [1]: 4 µg/mL (≈ 1.97 µM); Minimal inhibitory concentration [4]: 4 µg/mL (≈ 1.97 µM); Minimal inhibitory concentration [5]: 4 µg/mL (≈ 1.97 µM); Minimal inhibitory concentration [6]: 2 µg/mL (≈ 0.983 µM) |
| CC(=O)N[C@H](Cc1ccccc1)C(=O)N[C@H](CCCCN)C(=O)N[C@H](CCCCN)C(=O)N[C@H](Cc1ccccc1)C(=O)N[C@H](CCCCN)C(=O)N[C@H](CCCCN)C(=O)N[C@H](CC(C)C)C(=O)N[C@H](CC(C)C)C(=O)N[C@H](CO)C(=O)N[C@H](CCCCN)C(=O)N[C@H](CC(C)C)C(=O)N[C@H](Cc1c[nH]c2ccccc12)C(=O)N[C@H](CC(N)=O)C(=O)N[C@H](Cc1c[nH]c2ccccc12)C(=O)N[C@H](CCCCN)C(N)=O [PL-43] (Ac-[dF][dK][dK][dF][dK][dK][dL][dL][dS][dK][dL][dW][dN][dW][dK]-NH2; N-terminus and C-terminus assumed) |  |  |  |  |  |  |  |  |  |  | 41.64 min | 40.52 min | 1.65 min | 41.97 min | 19.08 min | 20.60 min | 41.64 min | 40.52 min | >64 µg/mL | 64 µg/mL (≈ 31.4 µM) | Minimal inhibitory concentration [5]: 32 µg/mL (≈ 15.7 µM) |
| Ac-FKKLKKLFSKLWNWK-NH2 [PL-13] |  |  |  |  |  |  |  |  |  |  | 35.75 min | 33.37 min | 0.56 min | 35.75 min | 13.19 min | 13.45 min | 35.75 min | 33.37 min | >64 µg/mL | 32 µg/mL | Minimal inhibitory concentration [4]: 8 µg/mL |
| Ac-FKRLEKLFSKIWNWK-NH2 [PL-12] | 8 µg/mL | 16 µg/mL | >64 µg/mL | >64 µg/mL | 32 µg/mL | 32 µg/mL | 16 µg/mL | 16 µg/mL | 32 µg/mL | 32 µg/mL |  |  |  |  |  |  | 38.04 min | 36.10 min |  |  | Minimal inhibitory concentration ([6]; JLC 31379 candida tropicalis): 4 µg/mL; Minimal inhibitory concentration ([6]; JLC 31384 candida tropicalis): 8 µg/mL |
